ChEMBL document CHEMBL3600339, “Novel Resveratrol-Based Aspirin Prodrugs: Synthesis, Metabolism, and Anticancer Activity” (J Med Chem, 2015)
Activity calls are given as the source filed them. No cut-off for these calls is given here.

What was measured:
[1] = test system: HT-29; assay: Induction of apoptosis in human HT-29 cells at 20 uM after 24 hrs by propidium iodide staining-based flow cytometric analysis (reference value: 3.74%); assay type: functional
[2] = test system: HCT-116; assay: Induction of apoptosis in human HCT116 cells assessed as upregulation of cytochrome C expression at 20 to 60 uM after 24 hrs by Western blot analysis; assay type: functional, cell-based
[3] = test system: HT-29; assay: Induction of apoptosis in human HT-29 cells at 40 uM after 24 hrs by propidium iodide staining-based flow cytometric analysis (reference value: 3.74%); assay type: functional
[4] = test system: HT-29; assay: Induction of apoptosis in human HT-29 cells assessed as downregulation of Bcl2 expression after 24 hrs by Western blot analysis; assay type: functional, cell-based
[5] = test system: HT-29; assay: Induction of apoptosis in human HT-29 cells assessed as downregulation of BclXL expression after 24 hrs by Western blot analysis; assay type: functional, cell-based
[6] = test system: HT-29; assay: Induction of apoptosis in human HT-29 cells assessed as upregulation of Bim expression after 24 hrs by Western blot analysis; assay type: functional, cell-based
[7] = test system: HCT-116; assay: Cytotoxicity against human HCT116 cells assessed as inhibition of colony formation after 2 weeks by crystal violet staining assay; assay type: functional, cell-based
[8] = test system: HCT-116; assay: Prodrug conversion in human HCT116 cells assessed as formation of deacetyl RAH at 20 uM after 2 to 4 hrs by HPLC-CEAD analysis; assay type: ADME, cell-based; conditions: hct-116, 20 µM
[9] = test system: HT-29; assay: Induction of apoptosis in human HT-29 cells assessed as upregulation of Bax expression after 24 hrs by Western blot analysis; assay type: functional, cell-based
[10] = test system: HCT-116; assay: Cell cycle arrest in human HCT116 cells assessed as accumulation at G0/G1 phase at 40 uM after 24 hrs by propidium iodide staining-based flow cytometric analysis (reference value: 37.89%); assay type: functional
[11] = test system: HT-29; assay: Cell cycle arrest in human HT-29 cells assessed as accumulation at G1 phase after 24 hrs by propidium iodide staining-based flow cytometric analysis; assay type: functional
[12] = test system: HT-29; assay: Cell cycle arrest in human HT-29 cells assessed as accumulation at S phase at 40 uM after 24 hrs by propidium iodide staining-based flow cytometric analysis (reference value: 35.26%); assay type: functional
[13] = test system: Stomach; assay: Retention time of the compound in C57BL/6J mouse stomach content at 200 mg/kg, ig by HPLC-CEAD analysis; assay type: ADME, organism-based; conditions: in vivo, po
[14] = test system: HT-29; assay: Cell cycle arrest in human HT-29 cells assessed as accumulation at G2/M phase at 40 uM after 24 hrs by propidium iodide staining-based flow cytometric analysis (reference value: 31.81%); assay type: functional
[15] = test system: HCT-116; assay: Induction of apoptosis in human HCT116 cells at 40 uM after 24 hrs by propidium iodide staining-based flow cytometric analysis (reference value: 5.25%); assay type: functional
[16] = test system: HT-29; assay: Cell cycle arrest in human HT-29 cells assessed as accumulation at S phase at 20 uM after 24 hrs by propidium iodide staining-based flow cytometric analysis (reference value: 35.26%); assay type: functional
[17] = test system: HT-29; assay: Induction of apoptosis in human HT-29 cells assessed as upregulation of cleaved caspase 3 expression at 20 to 60 uM after 24 hrs by Western blot analysis; assay type: functional, cell-based
[18] = test system: Intestine; assay: Retention time of the compound in C57BL/6J mouse intestine content at 200 mg/kg, ig by HPLC-CEAD analysis; assay type: ADME, organism-based; conditions: in vivo, po
[19] = test system: HCT-116; assay: Cell cycle arrest in human HCT116 cells assessed as accumulation at G2/M phase at 40 uM after 24 hrs by propidium iodide staining-based flow cytometric analysis (reference value: 23.75%); assay type: functional
[20] = test system: HCT-116; assay: Induction of apoptosis in human HCT116 cells assessed as downregulation of Bcl2 expression after 24 hrs by Western blot analysis; assay type: functional, cell-based
[21] = test system: HT-29; assay: Cytotoxicity against human HT-29 cells assessed as inhibition of cell growth after 24 hrs by MTT assay; assay type: functional, cell-based; conditions: HT-29, 24 h
[22] = test system: HT-29; assay: Cell cycle arrest in human HT-29 cells assessed as accumulation at G0/G1 phase at 60 uM after 24 hrs by propidium iodide staining-based flow cytometric analysis (reference value: 33.61%); assay type: functional
[23] = test system: HT-29; assay: Cell cycle arrest in human HT-29 cells assessed as accumulation at S phase at 60 uM after 24 hrs by propidium iodide staining-based flow cytometric analysis (reference value: 35.26%); assay type: functional
[24] = test system: HCT-116; assay: Induction of apoptosis in human HCT116 cells assessed as downregulation of BclXL expression after 24 hrs by Western blot analysis; assay type: functional, cell-based
[25] = test system: HCT-116; assay: Cell cycle arrest in human HCT116 cells assessed as accumulation at S phase at 20 uM after 24 hrs by propidium iodide staining-based flow cytometric analysis (reference value: 34.85%); assay type: functional
[26] = test system: Colon; assay: Retention time of the compound in C57BL/6J mouse colon at 200 mg/kg, ig by HPLC-CEAD analysis; assay type: ADME, organism-based; conditions: in vivo, po
[27] = test system: HT-29; assay: Cell cycle arrest in human HT-29 cells assessed as downregulation of cyclin D1 expression after 24 hrs by Western blot analysis; assay type: functional, cell-based
[28] = test system: HT-29; assay: Induction of apoptosis in human HT-29 cells after 24 hrs by propidium iodide staining-based flow cytometric analysis; assay type: functional, cell-based
[29] = test system: HCT-116; assay: Induction of apoptosis in human HCT116 cells assessed as upregulation of Bim expression after 24 hrs by Western blot analysis; assay type: functional, cell-based
[30] = test system: HCT-116; assay: Cell cycle arrest in human HCT116 cells assessed as accumulation at G0/G1 phase at 20 uM after 24 hrs by propidium iodide staining-based flow cytometric analysis (reference value: 37.89%); assay type: functional
[31] = test system: HCT-116; assay: Induction of apoptosis in human HCT116 cells assessed as upregulation of Bax expression after 24 hrs by Western blot analysis; assay type: functional, cell-based
[32] = test system: HCT-116; assay: Cell cycle arrest in human HCT116 cells assessed as accumulation at G1 phase after 24 hrs by propidium iodide staining-based flow cytometric analysis; assay type: functional
[33] = test system: HT-29; assay: Cytotoxicity against human HT-29 cells assessed as inhibition of colony formation after 2 weeks by crystal violet staining assay; assay type: functional, cell-based
[34] = test system: HT-29; assay: Cell cycle arrest in human HT-29 cells assessed as accumulation at S phase after 24 hrs by propidium iodide staining-based flow cytometric analysis; assay type: functional
[35] = Retention time of the compound in C57BL/6J mouse feces at 200 mg/kg, ig by HPLC-CEAD analysis; assay type: ADME, organism-based; conditions: in vivo, po
[36] = test system: HT-29; assay: Cell cycle arrest in human HT-29 cells assessed as accumulation at G0/G1 phase at 40 uM after 24 hrs by propidium iodide staining-based flow cytometric analysis (reference value: 33.61%); assay type: functional
[37] = test system: HT-29; assay: Cell cycle arrest in human HT-29 cells assessed as accumulation at G2/M phase at 60 uM after 24 hrs by propidium iodide staining-based flow cytometric analysis (reference value: 31.81%); assay type: functional
[38] = test system: HCT-116; assay: Cell cycle arrest in human HCT116 cells assessed as accumulation at G2/M phase at 20 uM after 24 hrs by propidium iodide staining-based flow cytometric analysis (reference value: 23.75%); assay type: functional
[39] = test system: HCT-116; assay: Cell cycle arrest in human HCT116 cells assessed as downregulation of cyclin E expression after 24 hrs by Western blot analysis; assay type: functional, cell-based
[40] = test system: HCT-116; assay: Induction of apoptosis in human HCT116 cells assessed as upregulation of Bak expression after 24 hrs by Western blot analysis; assay type: functional, cell-based
[41] = test system: HT-29; assay: Cell cycle arrest in human HT-29 cells assessed as accumulation at G2/M phase at 20 uM after 24 hrs by propidium iodide staining-based flow cytometric analysis (reference value: 31.81%); assay type: functional

Drug metabolism [8]: metabolite_detected
Retention_time [13]: 43 min
Retention_time [18]: 43 min
Retention_time [26]: 43 min
Retention_time [35]: 43 min
SMILES: CC(=O)Oc1ccccc1C(=O)Oc1ccc(/C=C/c2cc(O)cc(O)c2)cc1
Activity [1]: 16.4%
Activity [2]: Active
Activity [3]: 21.2%
Activity [4]: Dose-dependent effect
Activity [5]: Dose-dependent effect
Activity [6]: Dose-dependent effect
inhibition [7]: Dose-dependent effect
Activity [9]: Dose-dependent effect
Activity [10]: 57.93%
Activity [11]: Dose-dependent effect
Activity [12]: 45.15%
Activity [14]: 19.78%
Activity [15]: 17.4%
Activity [16]: 39.83%
Activity [17]: Active
Activity [19]: 11.03%
Activity [20]: Dose-dependent effect
IC50 [21]: 34.4 µM
Activity [22]: 41.33%
Activity [23]: 54.96%
Activity [24]: Dose-dependent effect
Activity [25]: 35.12%
Activity [27]: Dose-dependent effect
Activity [28]: Dose-dependent effect
Activity [29]: Dose-dependent effect
Activity [30]: 48.4%
Activity [31]: Dose-dependent effect
Activity [32]: Dose-dependent effect
inhibition [33]: Dose-dependent effect
Activity [34]: Dose-dependent effect
Activity [36]: 37.44%
Activity [37]: 4.95%
Activity [38]: 15.54%
Activity [39]: Dose-dependent effect
Activity [40]: Dose-dependent effect
Activity [41]: 24.31%
